Reference: patent US9789199B2, “MetAP-2 inhibitor polymersomes for therapeutic administration” (priority 2007, dated 2017)
“Also recorded” adds a separate entry of the source.

Key:
[1] = high chemotherapeutic doses; cited from earlier work
obesity = conditions: mice; cited from earlier work
LLC tumors = assay: Oral Lodamin vs free TNP-470, primary Lewis lung carcinoma tumor experiments; format: in vivo, mouse; conditions: free TNP-470 given orally, 30 mg/kg q.o.d.
Protocol: For tumor experiments: LLC cells (1×10^6) or B16/F10 melanoma cells (1×10^6) were implanted subcutaneously in 8 week old C57Bl/6J male mice (Jackson Laboratories, Bar Harbor, Me.). Oral availability of free TNP-470 was compared to that of Lodamin. A dose of 30 mg/kg q.o.d. of free TNP-470 and an equivalent dose of Lodamin (Lodamin, 6 mg in 100 μl/d) were administered to LLC tumor bearing mice (˜100 mm^3) and tumor growth was followed for 18 d. Free drug was given as a suspension in double distilled water and freshly prepared before each dose. Additionally, we compared different doses and frequencies of Lodamin treatment: 15 mg/kg q.d., 15 mg/kg q.o.d. and 30 mg/kg q.o.d. To eliminate any possible effect of the vehicle (polymer without drug) one group of mice was given micelles without drug and tumor progression was compared to water treated mice.
For the melanoma tumor experiment, a dose of 15 mg/kg q.d. Lodamin was administered to B16/F10 melanoma bearing mice. In all experiments, tumor size and animal weight were monitored every 2 d. Tumor volume was measured with calipers in two diameters as follows: (width)^2×(length)×0.52. Note that all the above Lodamin doses are presented as TNP-470 equivalent.

RAGE and HMGB-1 = RAGE and HMGB-1 protein levels in HMVEC; format: cell-based; conditions: 0.1-100 nM
Protocol: A dose dependent effect on RAGE expression was detected.
RPE cells were cultivated as has been previously described^59. […] HMVECs, were purchased from Cambrex Bio Science Inc. (Rockland, Me.) and were maintained on collagen I coated plates with endothelial cell growth medium containing 2% FBS (EGM-2; Cambrex, Inc.) at 37° C. with humidified 95% air/5% CO2.
Lodamin Reduces MCP-1 and VEGF Induced Vessel Permeability

[2] = tested on: murine, human and metastatic tumors; conditions: mice, cited from earlier work
[3] = parent drug; cited from earlier work
[4] = Body distribution and serum levels after oral administration; format: in vivo, mouse; conditions: post-administration
Protocol: For all biodistribution studies we used a fluorescent marker for tracking Lodamin. Mice were administered 6-coumarin labeled mPEG-PLA by oral gavage for 3 d (100 μl of 1.5 mg/ml). On the third day of treatment, after 8 h of fasting, animals were sacrificed and spleen, kidney, brain, lungs, liver, intestine, stomach, and bladder were collected. The fluorescent 6-coumarin was extracted from the tissues by incubation with formamide for 48 h at 25° C. Samples were centrifuged and signal intensity of fluorescence of supernatants was detected with a Wallac 1420 VICTOR plate-reader (Perkin-Elmer Life Sciences) with excitation/emission at 488 nm/530 nm. […] Tissue autofluorescence was corrected by subtracting the fluorescent signal of non-treated mouse organs from the respective readings in treated mice. Similarly, levels of fluorescent signal in mouse sera were measured in different time points (1, 2, 4, 8, 24, 48 and 72 h) using excitation/emission readings at 488 nm/530 nm.
In order to analyze cell uptake in the different tissues in tumor bearing mice, PEG-PLA-rhodamine micelles (100 μl of 1.5 mg/ml) or water were orally administered to C57Bl/6J mice bearing LLC tumors (200 mm^3) for 3 d. […] These suspensions were analyzed by flow cytometry in order to quantify the uptake of micelles into different tissue cells when compared to those in the untreated mouse.

[5] = Balance beam motor coordination test (neurotoxicity); format: in vivo, mouse; conditions: free TNP-470 injected subcutaneously 30 mg/kg q.o.d., vs control
Protocol: A slightly modified balance beam motor coordination test was performed on three groups of mice: Oral Lodamin treated mice (30 mg/kg eq. q.o.d.), free TNP-470 (30 mg/kg) subcutaneously injected mice and water treated mice (administered by gavage). The mice were pretreated for 14 d (n=4-5 per group) and then the mice were allowed to acclimate to the procedure room for 1 h, after which they were trained in 3 trials to cross a wide (20 mm width×1 m length) balance beam. All the mice crossed the wide beam without making foot-slip errors. The mice were then trained on a narrow (4 mm width×1 m length) beam for 3 trials. At the end of the training trials, no freezing behavior was observed, and the mice would start to walk within 4 seconds of being placed on the beam. The mice were then videotaped as they performed in 3 test trials of 3 beam crossings each—a total of 9 crossings per mouse. The 3 trials were separated by at least 1 h to avoid fatigue of the mice. Videotaped crossings were scored for number of foot-slip errors and time to cross. All experiments and scoring of the different groups were performed by an investigator who has been no knowledge regarding the treatment regime of the mice.

## 6-O—(N-chloroacetylcarbamoyl)fumagillol [TNP-470]
[1]
  neurotoxicity in patients: many patients experience neurotoxicity
obesity
  effect on obesity: prevent diet-induced and genetic obesity
LLC tumors
  effect on growth of subcutaneous LLC tumors: no inhibition; also recorded: had no effect
RAGE and HMGB-1
  RAGE and HMGB-1 levels: reduced in a dose dependent manner
[2]
  inhibition of growth of human tumors: up to 100%
  inhibition of growth of metastatic tumors: up to 100%
[2]; mostly 30 mg/kg subcutaneously every other day
  inhibition of growth of murine tumors: up to 91%
[3]
  plasma half-life: a few minutes
[4]
  time up to which free drug was detected in mice sera: up to 2 h
[5]
  balance beam foot-slip errors: over twice as many errors
